Laboratory results as given in PubChem BioAssay (NCI).
Values joined by “and” are separate entries in the source; they are usually repeats but may differ in a detail not shown here. Equal entries are not always repeated.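 Five compound concentrations were applied to cells in 96-well plates for 48 hours; endpoints were derived by simple linear interpolation of the resulting dose-response curve. Abbreviation: GI50, concentration required for 50% inhibition of growth. The concentration for full growth arrest is given as TGI.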

Columns and labels:
Assay in all cases: DTP human tumour cell line panel, 48 h
786-0 renal = tested on: 786-0 renal
A549 NSCLC = tested on: A549 NSCLC
SK-MEL-2 melanoma = tested on: SK-MEL-2 melanoma
KM12 colon = tested on: KM12 colon
M14 melanoma = tested on: M14 melanoma
MOLT-4 leukemia = tested on: MOLT-4 leukemia
OVCAR-3 ovarian = tested on: OVCAR-3 ovarian
COLO 205 colon = tested on: COLO 205 colon

COC(=O)c1cncc(/C=C/c2c(C)cc(O)cc2C)c1
GI50 (786-0 renal): 9.42 µM
TGI (786-0 renal): > 25 µM
GI50 (A549 NSCLC): > 17.5 µM
TGI (A549 NSCLC): > 25 µM
GI50 (SK-MEL-2 melanoma): 8.31 µM
TGI (SK-MEL-2 melanoma): 22.1 µM
GI50 (KM12 colon): 7.76 µM
TGI (KM12 colon): 24.6 µM
GI50 (M14 melanoma): 8.69 µM
TGI (M14 melanoma): 24.6 µM
GI50 (MOLT-4 leukemia): 4.19 µM
TGI (MOLT-4 leukemia): > 20.1 µM
GI50 (OVCAR-3 ovarian): 10.1 µM
TGI (OVCAR-3 ovarian): > 21.1 µM
GI50 (COLO 205 colon): > 22.4 µM
TGI (COLO 205 colon): > 25 µM

O=C(/C=C/c1cccc(O)c1)c1cccc(-n2cc(-c3ccccc3)[nH]c2=O)c1
GI50 (786-0 renal): 2.36 µM
GI50 (A549 NSCLC): 6.39 µM
TGI (A549 NSCLC): 21.8 µM
GI50 (SK-MEL-2 melanoma): 6.23 µM
TGI (SK-MEL-2 melanoma): 24.7 µM
GI50 (KM12 colon): 1.78 µM
TGI (KM12 colon): 3.46 µM
GI50 (M14 melanoma): 2.89 µM
GI50 (MOLT-4 leukemia): 3.38 µM
TGI (MOLT-4 leukemia): > 27.3 µM
GI50 (OVCAR-3 ovarian): 2.58 µM
TGI (OVCAR-3 ovarian): 6.19 µM
GI50 (COLO 205 colon): 1.96 µM
TGI (COLO 205 colon): 3.85 µM

COC(=O)CCCCC(=O)c1c(C)[nH]c(/C=C2\N=C(c3ccc[nH]3)C=C2OC)c1C
GI50 (786-0 renal): 0.437 µM
TGI (786-0 renal): 1.61 µM
GI50 (A549 NSCLC): 1.25 µM
TGI (A549 NSCLC): 3.28 µM
GI50 (SK-MEL-2 melanoma): 0.456 µM
TGI (SK-MEL-2 melanoma): 1.83 µM
GI50 (KM12 colon): 0.54 µM
TGI (KM12 colon): 1.96 µM
GI50 (M14 melanoma): 0.289 µM
TGI (M14 melanoma): 0.952 µM
GI50 (MOLT-4 leukemia): 0.103 µM
TGI (MOLT-4 leukemia): 1.74 µM
GI50 (OVCAR-3 ovarian): 0.88 µM
TGI (OVCAR-3 ovarian): 2.24 µM
GI50 (COLO 205 colon): 1.64 µM
TGI (COLO 205 colon): 3.29 µM

Cc1cc(N=Nc2ccccc2C)ccc1N
GI50 (786-0 renal): 2.96 µM
TGI (786-0 renal): 27 µM and 15.8 µM
GI50 (A549 NSCLC): 3.42 µM
TGI (A549 NSCLC): 17.1 µM and 20.3 µM
TGI (SK-MEL-2 melanoma): 33.5 µM
GI50 (KM12 colon): 7.37 µM
TGI (KM12 colon): 23.2 µM and 21.5 µM
GI50 (M14 melanoma): 16.1 µM
TGI (M14 melanoma): 24.9 µM and 38.7 µM
GI50 (MOLT-4 leukemia): 0.967 µM
TGI (MOLT-4 leukemia): > 100 µM
TGI (OVCAR-3 ovarian): 21.8 µM and 23.7 µM
TGI (COLO 205 colon): 33.6 µM and 32.4 µM

Cn1cc(C2=C(c3cccc(OC[C@@H](O)CO)c3)C(=O)NC2=O)c2ccccc21
GI50 (786-0 renal): 14 µM
TGI (786-0 renal): > 25 µM
GI50 (A549 NSCLC): > 25 µM
TGI (A549 NSCLC): > 25 µM
GI50 (SK-MEL-2 melanoma): > 25 µM
TGI (SK-MEL-2 melanoma): > 25 µM
GI50 (KM12 colon): 11 µM
TGI (KM12 colon): > 25 µM
GI50 (M14 melanoma): > 25 µM
TGI (M14 melanoma): > 25 µM
GI50 (MOLT-4 leukemia): 16.1 µM
TGI (MOLT-4 leukemia): > 25 µM
GI50 (OVCAR-3 ovarian): 11.2 µM
TGI (OVCAR-3 ovarian): > 25 µM
GI50 (COLO 205 colon): > 18.3 µM
TGI (COLO 205 colon): > 25 µM

N#CCCN1C/C(=C/c2ccc(Cl)cc2)C(=O)/C(=C/c2ccc(Cl)cc2)C1
GI50 (786-0 renal): 0.868 µM
TGI (786-0 renal): 2.77 µM
GI50 (A549 NSCLC): 1.89 µM
TGI (A549 NSCLC): 10.4 µM
GI50 (SK-MEL-2 melanoma): 2.19 µM
TGI (SK-MEL-2 melanoma): 4.88 µM
GI50 (KM12 colon): 0.275 µM
TGI (KM12 colon): 0.841 µM
GI50 (M14 melanoma): 1.8 µM
TGI (M14 melanoma): 3.99 µM
GI50 (MOLT-4 leukemia): 1.94 µM
TGI (MOLT-4 leukemia): 8.39 µM
GI50 (OVCAR-3 ovarian): 1.2 µM
TGI (OVCAR-3 ovarian): 2.5 µM
GI50 (COLO 205 colon): 1.25 µM
TGI (COLO 205 colon): 2.64 µM

C#CCNC(=O)[C@H](CC)[C@H]1CC[C@H](C)[C@H]([C@@H](C)[C@H](O)[C@H](C)C(=O)[C@H](CC)C2O[C@]3(C=CC(=O)[C@]4(CC[C@@](C)([C@H]5CC[C@](O)(CC)[C@H](C)O5)O4)O3)[C@H](C)C[C@@H]2C)O1 (some centres undefined)
GI50 (786-0 renal): 2.67 µM
TGI (786-0 renal): 8.19 µM
GI50 (A549 NSCLC): 2.61 µM
TGI (A549 NSCLC): 11.2 µM
GI50 (SK-MEL-2 melanoma): 2.44 µM
TGI (SK-MEL-2 melanoma): 7.31 µM
GI50 (M14 melanoma): 1.86 µM
TGI (M14 melanoma): 4.57 µM
GI50 (MOLT-4 leukemia): 2.44 µM
TGI (MOLT-4 leukemia): 8.76 µM
GI50 (OVCAR-3 ovarian): 1.86 µM
TGI (OVCAR-3 ovarian): 3.98 µM
GI50 (COLO 205 colon): 1.84 µM
TGI (COLO 205 colon): 3.52 µM

CC(=O)NCc1cccc(C#Cc2cncnc2Nc2ccc(OCc3cccc(F)c3)c(Cl)c2)c1
GI50 (786-0 renal): 10.7 µM
TGI (786-0 renal): > 25 µM
GI50 (A549 NSCLC): 6.47 µM
TGI (A549 NSCLC): > 25 µM
GI50 (SK-MEL-2 melanoma): 11.8 µM
TGI (SK-MEL-2 melanoma): > 25 µM
GI50 (KM12 colon): 11.1 µM
TGI (KM12 colon): > 25 µM
GI50 (M14 melanoma): 14.1 µM
TGI (M14 melanoma): > 25 µM
GI50 (MOLT-4 leukemia): 7.42 µM
TGI (MOLT-4 leukemia): > 25 µM
GI50 (OVCAR-3 ovarian): 11.6 µM
TGI (OVCAR-3 ovarian): > 25 µM
GI50 (COLO 205 colon): > 16.7 µM
TGI (COLO 205 colon): > 25 µM

Oc1c(I)cc(I)c2cccnc12
GI50 (786-0 renal): 7.14 µM
TGI (786-0 renal): 25.4 µM
GI50 (A549 NSCLC): 5.67 µM
TGI (A549 NSCLC): > 100 µM
GI50 (SK-MEL-2 melanoma): 8.82 µM
TGI (SK-MEL-2 melanoma): 52.4 µM
GI50 (KM12 colon): 4.69 µM
TGI (KM12 colon): > 100 µM
GI50 (M14 melanoma): 5.27 µM
TGI (M14 melanoma): 23.7 µM
GI50 (MOLT-4 leukemia): 7.53 µM
TGI (MOLT-4 leukemia): > 100 µM
GI50 (OVCAR-3 ovarian): 2.42 µM
TGI (OVCAR-3 ovarian): 6.5 µM
GI50 (COLO 205 colon): 3.6 µM
TGI (COLO 205 colon): 17 µM

Oc1cccc2ccc(N/N=C/c3cc(CN4CCOCC4)c(O)c4ncccc34)nc12
GI50 (786-0 renal): 0.0444 µM
TGI (786-0 renal): 3.75 µM
GI50 (A549 NSCLC): 0.0245 µM
TGI (A549 NSCLC): 1.23 µM
GI50 (SK-MEL-2 melanoma): < 0.0181 µM
TGI (SK-MEL-2 melanoma): 0.26 µM
GI50 (KM12 colon): 0.0267 µM
TGI (KM12 colon): 3.41 µM
GI50 (M14 melanoma): 0.0392 µM
TGI (M14 melanoma): 1.58 µM
GI50 (MOLT-4 leukemia): 0.053 µM
TGI (MOLT-4 leukemia): 5.62 µM
GI50 (OVCAR-3 ovarian): 0.0392 µM
TGI (OVCAR-3 ovarian): 2.09 µM
GI50 (COLO 205 colon): 0.117 µM
TGI (COLO 205 colon): 1.6 µM

N#CC1=C(/N=C/c2ccccc2)Oc2c(ccc3ccccc23)C1c1ccccc1 (centres undefined)
GI50 (786-0 renal): 0.546 µM
TGI (786-0 renal): > 100 µM
GI50 (A549 NSCLC): 0.95 µM
TGI (A549 NSCLC): > 100 µM
GI50 (SK-MEL-2 melanoma): 1.41 µM
TGI (SK-MEL-2 melanoma): > 100 µM
GI50 (KM12 colon): 0.46 µM
TGI (KM12 colon): > 100 µM
GI50 (M14 melanoma): 0.484 µM
TGI (M14 melanoma): > 100 µM
GI50 (MOLT-4 leukemia): 0.935 µM
TGI (MOLT-4 leukemia): > 100 µM
GI50 (OVCAR-3 ovarian): 0.341 µM
TGI (OVCAR-3 ovarian): 2.3 µM
GI50 (COLO 205 colon): 0.594 µM

O=C(O)CCC(=O)c1ccc2sc3ccccc3c2c1
TGI (786-0 renal): > 100 µM
TGI (A549 NSCLC): > 100 µM
TGI (SK-MEL-2 melanoma): > 100 µM
TGI (KM12 colon): > 100 µM
TGI (M14 melanoma): > 100 µM
TGI (MOLT-4 leukemia): > 100 µM
TGI (OVCAR-3 ovarian): > 100 µM
TGI (COLO 205 colon): > 100 µM

COc1cc(/C=C/C(=O)c2cccc(-n3cc(-c4ccc(Cl)cc4)[nH]c3=O)c2)cc(OC)c1OC
GI50 (786-0 renal): 2.14 µM
TGI (786-0 renal): 5.39 µM
GI50 (A549 NSCLC): 85.2 µM
TGI (A549 NSCLC): > 100 µM
GI50 (SK-MEL-2 melanoma): 3.44 µM
TGI (SK-MEL-2 melanoma): 12.5 µM
GI50 (KM12 colon): 5.45 µM
TGI (KM12 colon): 18.6 µM
GI50 (M14 melanoma): 4.36 µM
TGI (M14 melanoma): 18.3 µM
GI50 (MOLT-4 leukemia): 5.24 µM
TGI (MOLT-4 leukemia): > 100 µM
GI50 (OVCAR-3 ovarian): 2.48 µM
TGI (OVCAR-3 ovarian): 6.02 µM
GI50 (COLO 205 colon): 7.38 µM
TGI (COLO 205 colon): 20.2 µM

O=C1OC(C(O)CO)C(O)=C1O (centres undefined)
GI50 (786-0 renal): 1790 µM and > 4300 µM
TGI (786-0 renal): 3290 µM and > 5710 µM
GI50 (A549 NSCLC): 2510 µM and > 4270 µM
TGI (A549 NSCLC): 6010 µM and > 6460 µM
GI50 (SK-MEL-2 melanoma): 2190 µM
TGI (SK-MEL-2 melanoma): 4940 µM and > 3780 µM
GI50 (KM12 colon): 1790 µM and > 3990 µM
TGI (KM12 colon): 3270 µM and > 5430 µM
GI50 (M14 melanoma): 1890 µM and 2290 µM
TGI (M14 melanoma): 3570 µM and 4760 µM
GI50 (MOLT-4 leukemia): 2130 µM and 1550 µM
TGI (MOLT-4 leukemia): 5040 µM and > 4890 µM
GI50 (OVCAR-3 ovarian): 1560 µM
TGI (OVCAR-3 ovarian): 2900 µM
GI50 (COLO 205 colon): 2030 µM and 1830 µM
TGI (COLO 205 colon): 3750 µM and 3420 µM

Cc1cc(C#Cc2ccc(C(C)(C)C)cc2)ccc1-n1c(/C=C/c2ccc(O)cc2O)nc2ccccc2c1=O
GI50 (786-0 renal): 5.08 µM
TGI (786-0 renal): 17.9 µM
GI50 (A549 NSCLC): 2.83 µM
TGI (A549 NSCLC): 11.1 µM
GI50 (SK-MEL-2 melanoma): 3.52 µM
TGI (SK-MEL-2 melanoma): 13.4 µM
GI50 (KM12 colon): 3.33 µM
TGI (KM12 colon): 10.8 µM
GI50 (M14 melanoma): 5.91 µM
TGI (M14 melanoma): 25.6 µM
GI50 (MOLT-4 leukemia): 2.45 µM
TGI (MOLT-4 leukemia): 10.2 µM
GI50 (OVCAR-3 ovarian): 3.23 µM
TGI (OVCAR-3 ovarian): 12.5 µM
GI50 (COLO 205 colon): 3.02 µM
TGI (COLO 205 colon): 9.59 µM
